This note sets out measurements from article PMC6891756, “Synthesis and Biological Evaluation of Novel Aminochalcones as Potential Anticancer and Antimicrobial Agents” (Molecules, 2019).

A word on the IC50: it is the concentration that gives 50% inhibition. Low readings indicate greater potency, high ones weaker potency.

≈ marks a conversion by molar mass, not a printed value.

Data set [1] deals with Alternaria alternata CBS1526. The data set can be described thus: Microbial growth curve screening, A. alternata. The class given is cell-based. The conditions noted are these: 0.1% (w/v); for ∆OD A. alternata: OD at 560 nm, control 1.86; for Lag-phase A. alternata: control 16.5 h. The protocol:
(§1) The antimicrobial screening tests were performed on two strains of bacteria: E. coli ATCC10536 and S. aureus DSM799, strain of yeast C. albicans DSM1386 and three strains of fungi: F. linii KB-F1, A. alternata CBS1526 and A. niger DSM1957. All microorganisms were obtained from the collection of the Faculty of Biotechnology and Food Microbiology, Wrocław University of Environmental and Life Sciences. The bacteria were cultured in nutrient broth (Biocorp, Warsaw, Poland), yeast and fungi in YM medium (3 g yeast extract, 3 g malt extract, 5 g bacteriological peptone and 10 g of glucose dissolved in 1 L of distilled water). The tests were carried out in 100-well microtiter plates. To each well 280 μL of culture medium, 10 μL of microorganism suspension and 10 μL of aminochalcone (1–18) dissolved in dimethyl sulfoxide (3% (w/v)) were added. The final concentration of the tested compound (1–18) was 0.1% (w/v). Each experiment were performed in 3 replications. The optical density of the cell suspension was measured on Bioscreen C (Automated Growth Curve Analysis System Lab System, Vantaa, Finland) at 560 nm automatically, at regular intervals of 30 min for 2–3 days. Cell cultures were maintained at 28 °C on a continuous shaker. To prepare the growth curves for each strain, the mean values of the absorbance in a function of time were used. The resulting antimicrobial activity was expressed as the increase of optical density (ΔOD) and was compared to that of the control cultures in the medium supplemented with dimethyl sulfoxide and also with reference substances: oxytetracycline (against bacteria), cycloheximide (against yeast) and nystatin (against fungi) (Sigma Aldrich).

The subject of data set [2] is Aspergillus niger DSM1957. The data set can be described thus: Microbial growth curve screening, A. niger. In kind it is cell-based. The conditions noted are these: 0.1% (w/v); for ∆OD A. niger: OD at 560 nm, control 2.14; for Lag-phase A. niger: control 11.0 h. As for the experimental part: as §1
Data set [3] can be described thus: SRB assay, normal fibroblasts COS7. In kind it is cell-based, green monkey. The conditions noted are these: green monkey, COS7 kidney fibroblasts (normal cell line), ND = not detected in the tested concentration range. The protocol:
(§2) Anticancer activity was evaluated using the sulforhodamine B assay (SRB) on four different human colon cancer cell lines: HT-29, LS180, LoVo and LoVo/DX and green monkey kidney fibroblasts COS7 (ATCC, Manassas, VA, USA). Cell lines HT-29 and COS7 were cultured in α-MEM medium (IIET PAS, Wrocław, Poland), LS180 in OptiMEM medium (IIET PAS), LoVo and LoVo/DX in mixture of α-MEM and OptiMEM medium (1:1 (v:v)). Each culture medium was supplemented with 10% fetal bovine serum, 2 mM glutamine, 100 μg·mL^−1 penicillin, 100 μg·mL^−1 streptomycin and 0.25 μg·mL^−1 amphotericin (all supplements purchased from Gibco (Paisley, UK). Cells were incubated at 37 °C, 5% CO2 in HeraCELL 150i incubator (Thermo Fisher Scientific, Waltham, MA, USA).
(§3) For the SRB assay, cells were seeded onto 96-well plates (Sarstedt, Nümbrecht, Germany) at a density of 5·10^3/well and cultured overnight as described above. Then, the growth medium was gently removed and replaced with fresh medium, supplemented with aminochalcone derivatives in the concentration ranging from 1 µg·mL^−1 to 100 µg·mL^−1. All stock solutions were prepared in DMSO at a concentration of 10 mg·mL^−1. Cells were incubated for 48 h and then the SRB assay was performed as described previously. Each experiment was performed in quadruplicate. The final results were reported as the IC50 values calculated for three independent experiments. Cisplatin (Acros Organics, Waltham, MA, USA) and doxorubicin (Fisher BioReagents, Waltham, MA, USA) were used as positive controls of the test.

Data set [4] has as its system LoVo/DX. The data set can be described thus: SRB antiproliferative assay, LoVo/DX. The class given is cell-based, human. The conditions noted are these: Homo sapiens, LoVo/DX, 48 h, 1–100 µg·mL^−1, ND = not detected in the tested concentration range. The protocol:
as §2, §3

Data set [5] relates to Fusarium linii KB-F1. As to the kind of experiment: Microbial growth curve screening, F. linii. The class given is cell-based. The conditions noted are these: 0.1% (w/v); for ∆OD F. linii: OD at 560 nm, control 1.95; for Lag-phase F. linii: control 13.5 h. The protocol: as §1
Data set [6] deals with LS180. As to the kind of experiment: SRB antiproliferative assay, LS180. In kind it is cell-based, human. As to conditions: Homo sapiens, LS180, 48 h, 1–100 µg·mL^−1, ND = not detected in the tested concentration range. The protocol: as §2, §3
The test system of data set [7] is Escherichia coli ATCC10536. The data set can be described thus: Microbial growth curve screening, E. coli. The class given is cell-based. As to conditions: 0.1% (w/v), OD at 560 nm, control 1.61. The protocol: as §1
The subject of data set [8] is Escherichia coli ATCC10536. As to the kind of experiment: MIC evaluation (broth method), E. coli. As to conditions: 48–72 h, read-out: Minimal inhibitory concentration E. coli. In kind it is cell-based. As for the experimental part: Sterile 96-well microtiter plates (Sarstedt) with nutrient broth (for bacteria) (Biocorp) or YM medium (for yeast and filamentous fungi) were inoculated with a standardized cell suspension of bacteria and yeast or fungal spores of 10^5 cell·mL^−1, and supplemented with aminochalcones dissolved in DMSO. […] All analysis were conducted in triplicates. The plates were incubated at 30 °C (bacteria and yeast) or 25 °C (filamentous fungi) for 48–72 h. The results were measured with the Spark® Multimode Microplate Reader (Tecan, Männedorf, Switzerland) at a 560 nm wavelength. The minimal inhibitory concentration was defined as the lowest concentration of a tested compound that completely restricted the growth of the microorganism. In order to verify the obtained results, microbial cultures subjected to each concentration of aminochalcone were inoculated onto nutrient agar or YM plates and incubated as described above. The lack of growth on agar plate was a confirmation of the MIC of the tested compound. The resulting MIC values were compared with the reference substances: oxytetracycline (against bacteria), cycloheximide (against yeast) and nystatin (against fungi) (Sigma Aldrich).

The test system of data set [9] is Staphylococcus aureus DSM799. As to the kind of experiment: Microbial growth curve screening, S. aureus. In kind it is cell-based. The conditions noted are these: 0.1% (w/v); for ∆OD S. aureus: OD at 560 nm, control 1.67; for Lag-phase S. aureus: control 2.5 h. The protocol: as §1
Data set [10] relates to Candida albicans DSM1386. The data set can be described thus: Microbial growth curve screening, C. albicans. The conditions noted are these: 0.1% (w/v); for ∆OD C. albicans: OD at 560 nm, control 1.58; for Lag-phase C. albicans: control 3.0 h. In kind it is cell-based. The protocol: as §1
Data set [11] deals with HT-29. The data set can be described thus: SRB antiproliferative assay, HT-29. In kind it is cell-based, human. As to conditions: Homo sapiens, HT-29; SRB, 48 h, 1–100 µg·mL^−1; ND = not detected in the tested concentration range. The protocol:
as §2, §3
(In SRB staining, fixed cells bind dye roughly in proportion to their protein.)

For data set [12], the system named is LoVo. The data set can be described thus: SRB antiproliferative assay, LoVo. The class given is cell-based, human. The conditions noted are these: Homo sapiens, LoVo, 48 h, 1–100 µg·mL^−1, ND = not detected in the tested concentration range. The protocol: as §2, §3

Turning to `Nc1ccc(C(=O)/C=C/c2ccc(C(=O)O)cc2)cc1` [Compound 9, 4′-Amino-4-carboxychalcone], in data set [1], the “∆OD A. alternata” value was found to be 1.12 and the “Lag-phase A. alternata” value is 12.5 h. In addition, in data set [2], the “∆OD A. niger” value is 0.51 and the “Lag-phase A. niger” value amounted to 35.0 h. In data set [3], this compound gave an IC50 at 48 h of 32 ± 8.11 µg/mL (≈ 120 µM). In [4], this compound yielded an IC50 of 66.2 ± 1.32 µg/mL (≈ 248 µM). Besides, in data set [5], the “∆OD F. linii” value was determined as 0.99 and the “Lag-phase F. linii” value is on record as 13.5 h. In data set [6], this compound displayed an IC50 of 18.4 ± 0.19 µg/mL (≈ 68.7 µM). Also, the “∆OD E. coli” value in data set [7] amounted to 0.0. Moreover, in data set [8], the MIC came to 0.125 µg/mL (≈ 0.468 µM). Moreover, in data set [9], the “∆OD S. aureus” value turned out to be 0.35 and the “Lag-phase S. aureus” value turned out to be 37.0 h. Further, in [10], the “∆OD C. albicans” value is on record as 0.97 and the “Lag-phase C. albicans” value is given as 8.5 h. The compound further gave an IC50 in data set [11] of 32.4 ± 0.99 µg/mL (≈ 121 µM). Further, the IC50 in [12] was 73.5 ± 0.98 µg/mL (≈ 275 µM).

Take `Nc1ccc(C(=O)/C=C/c2ccc(OCc3ccccc3)cc2)cc1` [Compound 15, 4′-Amino-4-benzyloxychalcone]: in data set [1], the “∆OD A. alternata” value came to 1.04 and the “Lag-phase A. alternata” value was 19.5 h. In addition, in data set [2], the “∆OD A. niger” value stood at 0.57 and the “Lag-phase A. niger” value is 25.0 h. Further, the IC50 at 48 h in [3] was 13.4 ± 2.78 µg/mL (≈ 40.6 µM). The compound further displayed an IC50 in [4] of 6.66 ± 0.48 µg/mL (≈ 20.2 µM). Also, in [5], the “∆OD F. linii” value is 0.50 and the “Lag-phase F. linii” value is recorded as 11.5 h. In data set [6], this compound showed an IC50 of 8.23 ± 0.49 µg/mL (≈ 25 µM). In addition, the “∆OD E. coli” value in [7] was 0.0. For the same compound, in data set [8], the MIC is 0.125 µg/mL (≈ 0.379 µM). In data set [9], the “∆OD S. aureus” value is 0.22 and the “Lag-phase S. aureus” value was 8.0 h. Besides, in [10], the “∆OD C. albicans” value stood at 0.37 and the “Lag-phase C. albicans” value amounted to 16.0 h. The same compound displayed an IC50 in data set [11] of 7.83 ± 0.14 µg/mL (≈ 23.8 µM). The IC50 in [12] worked out at 7.64 ± 0.53 µg/mL (≈ 23.2 µM).

On to `CCc1ccc(/C=C/C(=O)c2cccc(N)c2)cc1` [Compound 5, 3′-Amino-4-ethylchalcone], for which, in data set [1], the “∆OD A. alternata” value is given as 0.39 and the “Lag-phase A. alternata” value is reported as 12.0 h. Moreover, in data set [2], the “∆OD A. niger” value worked out at 0.36 and the “Lag-phase A. niger” value was determined as 25.5 h. Moreover, the IC50 at 48 h in data set [3] amounted to 4.42 ± 0.27 µg/mL (≈ 17.6 µM). Further, in data set [4], the IC50 came out at 2.35 ± 0.08 µg/mL (≈ 9.35 µM). Also, in [5], the “∆OD F. linii” value is on record as 0.80 and the “Lag-phase F. linii” value stood at 8.0 h. The compound also registered an IC50 in data set [6] of 4.16 ± 0.12 µg/mL (≈ 16.6 µM). Also, the “∆OD E. coli” value in data set [7] is given as 0.0. Also, the MIC in data set [8] was 1 µg/mL (≈ 3.98 µM). Further, in [9], the “∆OD S. aureus” value is 0.98 and the “Lag-phase S. aureus” value is given as 29.5 h. In data set [10], the “∆OD C. albicans” value was determined as 0.61 and the “Lag-phase C. albicans” value turned out to be 9.5 h. In [11], this compound displayed an IC50 of 3.43 ± 0.05 µg/mL (≈ 13.6 µM). Further, in [12], the IC50 stood at 1.79 ± 0.1 µg/mL (≈ 7.12 µM).

For `COc1cccc2c1C(=O)c1c(O)c3c(c(O)c1C2=O)C[C@@](O)(C(=O)CO)C[C@@H]3O[C@H]1C[C@H](N)[C@H](O)[C@H](C)O1` [Compound 20, Doxorubicin, reference compound], in [3], half-maximal inhibition (IC50 at 48 h) required 3.55 ± 1.15 µg/mL (≈ 6.53 µM). Further, the IC50 is 5.32 ± 1.44 µg/mL (≈ 9.79 µM) in data set [4], 0.05 ± 0.02 µg/mL (≈ 0.092 µM) in data set [6], 0.33 ± 0.02 µg/mL (≈ 0.607 µM) in [11] and 0.73 ± 0.18 µg/mL (≈ 1.34 µM) in data set [12].

As for `COc1cc(/C=C/C(=O)c2ccc(N)cc2)ccc1OCc1ccccc1` [Compound 18, 4′-Amino-4-benzyloxy-3-methoxychalcone], in data set [1], the “∆OD A. alternata” value came to 0.22 and the “Lag-phase A. alternata” value is reported as 21.5 h. Moreover, in data set [2], the “∆OD A. niger” value is given as 0.65 and the “Lag-phase A. niger” value came to 28.5 h. Also, in data set [5], the “∆OD F. linii” value is given as 0.41 and the “Lag-phase F. linii” value is listed as 6.5 h. Also, in data set [6], the IC50 was 4.59 ± 0.29 µg/mL (≈ 12.8 µM). Further, the “∆OD E. coli” value in data set [7] was 0.0. Further, the MIC in data set [8] was 0.5 µg/mL (≈ 1.39 µM). Also, in data set [9], the “∆OD S. aureus” value is 0.26 and the “Lag-phase S. aureus” value worked out at 33.5 h. In addition, in data set [10], the “∆OD C. albicans” value was 0.68 and the “Lag-phase C. albicans” value turned out to be 4.5 h. Also, the IC50 in data set [11] came to 5.01 ± 0.49 µg/mL (≈ 13.9 µM). This compound also gave an IC50 in data set [12] of 3.54 ± 0.3 µg/mL (≈ 9.85 µM).
